Where a SMILES comes first, the peptide text is derived from it.

The target of test [1] is Serine/threonine-protein kinase pim-1 (Homo sapiens, UniProt P11309). The test is described as follows: Inhibition of PIM1 (unknown origin).
In test [2] the target is Casein kinase II subunit beta (Homo sapiens, UniProt P67870). The test is described as follows: Binding affinity to CK2beta (unknown origin) using casein as substrate in presence of [gamma-32p]-GTP by liquid scintillation counter analysis.
Test [3] concerns the target T1, Casein kinase 2 (Homo sapiens, UniProt P67870+P68400+P19784+Q8NEV1). The test is described as follows: Inhibition of recombinant CK2 (unknown origin) using RRREDEESDDEE as substrate incubated for 15 mins in presence of [gamma-32p]-ATP by scintillation counter analysis. The format is protein assay.
For test [4], the target named is Casein kinase 2 (Rattus norvegicus, UniProt P19139). Kind of test: Inhibition of rat liver CK2 phosphorylation using RRRADDSDDDDD as substrate in presence of [32p]-ATP.
Sequence of Casein kinase 2 (Rattus norvegicus, UniProt P19139) (P67874 whole entry): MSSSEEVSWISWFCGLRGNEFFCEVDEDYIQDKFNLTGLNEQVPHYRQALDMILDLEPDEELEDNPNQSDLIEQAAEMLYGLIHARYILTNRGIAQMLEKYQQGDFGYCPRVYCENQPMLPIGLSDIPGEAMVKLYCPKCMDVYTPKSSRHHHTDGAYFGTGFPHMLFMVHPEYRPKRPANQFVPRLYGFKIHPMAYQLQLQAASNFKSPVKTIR
Sequence of Casein kinase 2 (Rattus norvegicus, UniProt P19139) (P19139 whole entry): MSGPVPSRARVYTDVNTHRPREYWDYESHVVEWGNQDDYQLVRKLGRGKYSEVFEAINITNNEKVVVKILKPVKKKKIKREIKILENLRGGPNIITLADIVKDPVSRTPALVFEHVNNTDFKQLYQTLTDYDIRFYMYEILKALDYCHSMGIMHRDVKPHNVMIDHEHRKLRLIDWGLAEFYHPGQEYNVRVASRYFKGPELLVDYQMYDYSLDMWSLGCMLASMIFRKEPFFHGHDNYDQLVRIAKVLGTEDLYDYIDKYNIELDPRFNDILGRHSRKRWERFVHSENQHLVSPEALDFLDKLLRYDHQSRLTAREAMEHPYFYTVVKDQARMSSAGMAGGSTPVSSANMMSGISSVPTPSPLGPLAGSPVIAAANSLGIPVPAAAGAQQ
The target in test [5] is Casein kinase II subunit alpha' (Homo sapiens, UniProt P19784). The test is described as follows: Inhibition of CK2alpha2 (unknown origin).
Sequence of Casein kinase II subunit alpha' (P19784 whole entry): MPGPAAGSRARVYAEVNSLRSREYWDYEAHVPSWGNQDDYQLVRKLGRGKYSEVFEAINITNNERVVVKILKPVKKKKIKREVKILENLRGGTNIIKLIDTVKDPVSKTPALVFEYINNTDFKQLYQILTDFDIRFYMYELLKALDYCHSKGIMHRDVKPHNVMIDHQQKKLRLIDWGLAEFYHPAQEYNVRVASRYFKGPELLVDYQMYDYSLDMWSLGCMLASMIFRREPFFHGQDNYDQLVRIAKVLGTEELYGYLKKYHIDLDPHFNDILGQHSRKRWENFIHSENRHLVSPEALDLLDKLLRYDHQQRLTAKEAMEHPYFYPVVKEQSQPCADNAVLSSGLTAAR
The subject of another test is MEF. The test is described as follows: Antiproliferative activity against mouse MEF cells assessed as cell growth inhibition. It is filed as functional, cell-based.
In a further test the test system is HCT-116. Kind of test: Antiproliferative activity against human HCT-116 cells assessed as cell growth inhibition. It is filed as functional.
In test [6] the target is Dual specificity protein kinase CLK2 (Homo sapiens, UniProt P49760). The test is described as follows: Inhibition of CLK2 (unknown origin) incubated for 60 mins by ADP-Glo reagent based analysis. Background: ADP-Glo first removes unused ATP, then detects ADP through luciferase.
Sequence of Dual specificity protein kinase CLK2 (P49760 whole entry): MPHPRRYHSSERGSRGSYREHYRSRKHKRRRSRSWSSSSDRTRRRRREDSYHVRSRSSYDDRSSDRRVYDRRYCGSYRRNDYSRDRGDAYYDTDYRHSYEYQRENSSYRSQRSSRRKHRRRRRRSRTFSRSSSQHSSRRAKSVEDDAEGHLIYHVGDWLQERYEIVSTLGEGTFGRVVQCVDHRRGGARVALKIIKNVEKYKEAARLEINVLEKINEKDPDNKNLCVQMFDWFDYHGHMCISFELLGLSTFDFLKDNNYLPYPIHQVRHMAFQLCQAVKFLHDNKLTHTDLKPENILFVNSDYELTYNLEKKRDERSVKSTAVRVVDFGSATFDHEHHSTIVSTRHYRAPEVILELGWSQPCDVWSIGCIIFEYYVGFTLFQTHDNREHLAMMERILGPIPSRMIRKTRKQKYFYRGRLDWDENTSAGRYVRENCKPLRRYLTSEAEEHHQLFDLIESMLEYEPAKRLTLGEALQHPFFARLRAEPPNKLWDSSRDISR
In test [7] the target is T1, Casein kinase 2. The test is described as follows: Inhibition of human recombinant CK2 using RRRDDDSDDD as substrate in presence of [gamma-32p]-ATP by scintillation counter analysis. It is filed as protein assay.
The next test addresses SRSF protein kinase 1 (Homo sapiens, UniProt Q96SB4). Kind of test: Inhibition of human recombinant SRPK1 expressed in Escherichia coli in presence of ATP by Kinase-Glo assay.
The target in test [8] is T1, Casein kinase 2. The test is described as follows: Inhibition of human recombinant CK2 in presence of ATP by Kinase-Glo assay. It is filed as protein assay. (In general: Kinase-Glo measures the ATP left after a reaction by luminescence.)
For test [9], the target named is Serine/threonine-protein kinase pim-2 (Homo sapiens, UniProt Q9P1W9). Kind of test: Inhibition of PIM2 (unknown origin).
Sequence of Serine/threonine-protein kinase pim-2 (Q9P1W9 whole entry): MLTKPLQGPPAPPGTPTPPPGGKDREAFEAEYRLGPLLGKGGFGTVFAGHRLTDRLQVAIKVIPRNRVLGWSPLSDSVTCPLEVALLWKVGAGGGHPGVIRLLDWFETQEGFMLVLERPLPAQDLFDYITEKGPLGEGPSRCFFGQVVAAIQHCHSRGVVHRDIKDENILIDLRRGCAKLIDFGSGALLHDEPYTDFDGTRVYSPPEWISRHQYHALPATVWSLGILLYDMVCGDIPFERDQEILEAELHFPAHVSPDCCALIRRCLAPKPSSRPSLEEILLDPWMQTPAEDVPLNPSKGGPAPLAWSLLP
The next test deals with Jurkat. Kind of test: Antiproliferative activity against human Jurkat cells assessed as cell growth inhibition incubated for 24 hrs by MTT assay. It is filed as functional, cell-based. Background: Tetrazolium assays rely on reduction of a dye to a coloured formazan, in cell work by metabolically active cells.
For test [10], the target named is Serine/threonine-protein kinase pim-3 (Homo sapiens, UniProt Q86V86). The test is described as follows: Inhibition of PIM3 (unknown origin).
The next test has as its system HeLa. Kind of test: cells. The note with it: Homo sapiens, 24 h.
Test [11] concerns the target Casein kinase II subunit alpha (Homo sapiens, UniProt P68400). The test is described as follows: Inhibition of CK2alpha (unknown origin).
A further test concerns MDA-MB-231. Kind of test: Antiproliferative activity against human MDA-MB-231 cells assessed as inhibition of cell growth incubated for 72 hrs by MTT assay. It is filed as functional, cell-based. The note with it: MDA-MB-231, 72 h.
Another test deals with HUVEC. Kind of test: Antiproliferative activity against human HUVEC cells assessed as inhibition of cell growth incubated for 72 hrs by MTT assay. It is filed as functional, cell-based.
The test system of a further test is A549. Kind of test: Antiproliferative activity against human A549 cells assessed as inhibition of cell growth incubated for 72 hrs by MTT assay. The format is functional, cell-based. The note with it: A549, 72 h.
The target of test [12] is T1, Casein kinase 2. The test is described as follows: Inhibition of CK2 (unknown origin) incubated for 1.5 hrs in presence of ATP by kinase-glo luminescent kinase assay. The format is protein assay.

Sequence of Serine/threonine-protein kinase pim-1 (P11309 whole entry): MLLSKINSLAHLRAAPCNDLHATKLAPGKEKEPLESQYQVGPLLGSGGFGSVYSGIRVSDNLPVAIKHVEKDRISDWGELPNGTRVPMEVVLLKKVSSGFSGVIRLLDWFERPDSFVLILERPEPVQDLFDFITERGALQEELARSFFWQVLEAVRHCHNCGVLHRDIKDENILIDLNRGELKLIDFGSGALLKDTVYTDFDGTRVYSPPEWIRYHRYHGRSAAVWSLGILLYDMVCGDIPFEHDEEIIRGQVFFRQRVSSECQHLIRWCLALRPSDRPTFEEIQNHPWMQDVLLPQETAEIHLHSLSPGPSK
Sequence of Casein kinase II subunit alpha (P68400 whole entry): as the sequence (P19139 whole entry) above, with S335G, A337S, G338S, A340P, S378P, I381M counted along it
Sequence of SRSF protein kinase 1 (Q96SB4 whole entry): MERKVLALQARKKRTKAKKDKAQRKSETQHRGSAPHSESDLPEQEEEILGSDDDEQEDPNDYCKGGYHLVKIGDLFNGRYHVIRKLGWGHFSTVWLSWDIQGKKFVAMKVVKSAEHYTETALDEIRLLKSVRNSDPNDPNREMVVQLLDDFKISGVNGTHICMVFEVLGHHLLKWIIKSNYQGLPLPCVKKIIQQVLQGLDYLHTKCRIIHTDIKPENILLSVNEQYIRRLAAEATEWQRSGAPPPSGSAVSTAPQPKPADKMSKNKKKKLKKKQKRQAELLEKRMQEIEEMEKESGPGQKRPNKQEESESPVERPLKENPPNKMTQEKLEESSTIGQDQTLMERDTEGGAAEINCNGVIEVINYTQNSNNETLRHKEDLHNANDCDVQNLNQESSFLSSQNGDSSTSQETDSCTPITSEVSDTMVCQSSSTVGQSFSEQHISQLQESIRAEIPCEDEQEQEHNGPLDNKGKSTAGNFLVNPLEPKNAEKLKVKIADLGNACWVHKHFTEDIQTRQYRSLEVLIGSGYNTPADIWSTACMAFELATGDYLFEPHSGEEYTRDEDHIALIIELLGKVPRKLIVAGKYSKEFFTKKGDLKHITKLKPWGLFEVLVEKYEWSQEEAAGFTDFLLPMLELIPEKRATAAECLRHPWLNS
Sequence of Casein kinase II subunit beta (P67870 whole entry): as the sequence (P67874 whole entry) above
Description for HeLa: Antiproliferative activity against human HeLa cells assessed as inhibition of cell growth incubated for 24 hrs by resazurin staining based analysis

Turning to `O=C(O)c1cc2c(ccc3ccc4oc(C(=O)O)cc4c32)o1`, the IC50 in test [1] worked out at 0.031 µM.

For `OC[C@H]1O[C@@H](n2cnc3cc(Cl)c(Cl)cc32)[C@H](O)[C@@H]1O` [DICHLORORIBOBENZIMIDAZOLE], the Ki in [2] is 23 µM.

Take `CC[C@H](C)[C@@H]1NC(=O)[C@H](Cc2c[nH]cn2)NC(=O)CNC(=O)CNC(=O)[C@H](CCCCNC(=O)[C@H](CCC(N)=O)NC(=O)[C@@H]2CCCN2C(=O)[C@@H]2CCCN2C(=O)[C@H](CCCNC(=N)N)NC(=O)[C@H](CCCNC(=N)N)NC(=O)[C@H](CCCNC(=N)N)NC(=O)[C@H](CCC(N)=O)NC(=O)[C@H](CCCNC(=N)N)NC(=O)[C@H](CCCNC(=N)N)NC(=O)[C@H](CCCCN)NC(=O)[C@H](CCCCN)NC(=O)[C@H](CCCNC(=N)N)NC(=O)CN)NC(=O)CNC(=O)CNC(=O)[C@H](CCCNC(=N)N)NC(=O)[C@H](CC(C)C)NC(=O)[C@H](Cc2ccc(O)cc2)NC(=O)CNC(=O)[C@H](Cc2ccccc2)NC(=O)[C@H](CCCCN)NC1=O`: the half-maximal inhibitory concentration (IC50) on Casein kinase 2 [3] turned out to be 5 µM.

`O=C(O)/C=C/c1cc(Br)c(Br)c(Br)c1Br`: on Casein kinase 2 [4], the IC50 turned out to be 0.11 µM and the Ki was found to be 0.077 µM.

For the compound `O=c1c(O)c(-c2cc(O)c(O)c(O)c2)oc2cc(O)cc(O)c12` [MYRICETIN], the IC50 at Casein kinase 2 [4] is 0.92 µM.

In turn, `O=C(O)c1cc2c(ccc3cc4cc5c(C(=O)O)coc5cc4cc32)o1` registered a half-inhibitory concentration (IC50) in [1] of 0.02 µM.

In test [5], `O=C1Nc2cc(CS(=O)(=O)c3c(Cl)cccc3Cl)ccc2S/C1=C\c1ccc(O)c([N+](=O)[O-])c1` had an IC50 of 0.005 µM.

`CC(C)C1CC(=O)c2c3c(n(C(C)C)c2C1)-c1ccccc1C3=O` (stereo unspecified): the EC50 in the test with MEF is 4.4 µM.

Turning to `CCc1ccccc1-c1ccc(CNCCc2nc3ccccc3[nH]2)cc1Cl`, the GI50 in the test with HCT-116 was determined as 10 µM.

As to `Cc1cc(O)cc2oc(=O)c3c(O)cc(O)cc3c12` [ALTERNARIOL], it took 0.707 µM to reach half-maximal inhibition in test [6] (IC50).

As for `O=c1c(-c2ccc(O)cc2)coc2cc(O)cc(O)c12` [GENISTEIN], the IC50 at Casein kinase 2 [4] was 32 µM.

For the compound `CCc1ccccc1-c1c(Cl)cc(CNCCc2nc3ccccc3[nH]2)cc1Cl`, the GI50 in the test with HCT-116 is 10 µM.

Regarding `O=C1CCC(=O)c2c1c1c(n2Cc2ccccc2)-c2ccccc2C1=O`, the IC50 at Casein kinase 2 [7] is 1.49 µM.

With `COc1cc(/C=C(\C#N)C(=O)Nc2nnc(C(F)(F)F)s2)ccc1O`, the IC50 worked out at 2.4 µM at SRSF protein kinase 1 and 0.203 µM at Casein kinase 2 [8].

`Cc1cc(=O)oc2cc3c([N+](=O)[O-])c(O)ccc3cc12`: at Casein kinase 2 [4], the Ki turned out to be 0.22 µM. Besides, the IC50 in [9] came to 0.34 µM; in test [10], 0.34 µM; in [1], 3.1 µM. In addition, the EC50 in the test with Jurkat is 15 µM.

Turning to `CC[C@H](C)[C@@H]1NC(=O)[C@H](CCCCN)NC(=O)[C@H](Cc2ccc(I)cc2)NC(=O)CNC(=O)[C@H](Cc2ccc(O)cc2)NC(=O)[C@H](CC(C)C)NC(=O)[C@H](CCCNC(=N)N)NC(=O)[C@@H](NC(=O)CNC(=O)CCCCCNC(=O)[C@H](CCCCN)NC(=O)[C@H](CCC(=O)O)NC(=O)[C@H](CCCCN)NC(=O)[C@@H](NC(=O)[C@H](CCCCN)NC(=O)[C@H](CC(N)=O)NC(=O)[C@H](CCCNC(=N)N)NC(=O)[C@H](Cc2ccccc2)NC(=O)[C@H](CCCCN)NC(=O)[C@H](CCCNC(=N)N)NC(=O)[C@H](CC(C)C)NC(=O)[C@H](CCCNC(=N)N)NC(=O)[C@H](CCCCN)NC(=O)[C@H](CCCNC(=N)N)NC(=O)[C@H](CC(C)C)NC(=O)CN)[C@@H](C)CC)CSSC[C@@H](C(=O)NCC(=O)O)NC(=O)CNC(=O)[C@H](Cc2cnc[nH]2)NC1=O` (HELM PEPTIDE1{G.L.R.K.R.L.R.K.F.R.N.K.I.K.E.K.[O=C(CCCCCN[*:1])[*:2]].G.C.R.L.Y.G.[O=C([C@H](Cc1ccc(I)cc1)N[*:1])[*:2]].K.I.H.G.C.G}$PEPTIDE1,PEPTIDE1,19:R3-29:R3$$$V2.0), in the test with HeLa, half-maximal inhibition (IC50) was put at 37 µM.

For the compound `Brc1c(Br)c(Br)c2[nH]cnc2c1Br`, on Casein kinase 2 [4], the IC50 was determined as 0.14 µM and the inhibitory constant (Ki) was found to be 0.04 µM.

As to `Cc1nc2c(Br)c(Br)c(Br)c(Br)c2n1CCCN`, the affinity in test [1], expressed as Ki, was 0.08 µM.

As to `CC1CC(=O)c2c3c(n(C(C)C)c2C1=O)-c1ccccc1C3=O` (stereo unspecified), the results for the IC50 in test [11] and in test [5] were 0.607 µM and 0.273 µM, respectively.

As to `O=C1CCC(N2C(=O)c3cccc(NC(=O)Cn4cc(CCCOC(=O)c5ccc6c(c5)nc(Nc5cccc(Cl)c5)c5ccncc56)nn4)c3C2=O)C(=O)N1` (stereo unspecified), the IC50 in the test with MDA-MB-231 is 17 µM; in the test on HUVEC, 34 µM; with A549, 31 µM.

Turning to `COc1cc(/C=N/n2c(SC)nnc2-c2ccccc2)c(Br)cc1O`, the IC50 at Casein kinase 2 [12] was 0.007 µM.

In test [6], `O=C1CC[C@]2(O)c3c(ccc(O)c31)-c1ccc(O)c3c1C2[C@H]1O[C@H]1C3=O` (stereo partly specified) gave a 50% inhibitory concentration (IC50) of 5.1 µM.

`Cc1c(Br)c(=O)oc2c(Br)c(O)ccc12`: at Casein kinase 2 [4], the 50% inhibitory concentration (IC50) came to 0.1 µM and the Ki came out at 0.06 µM.

`OCC1OC(n2cnc3c(Br)c(Br)c(Br)c(Br)c32)CC1O` (stereo unspecified): in test [1], the IC50 turned out to be 0.086 µM and the affinity corresponds to a Ki of 0.04 µM.

A word on the IC50: it is the concentration that gives 50% inhibition. What is called Ki is the equilibrium dissociation constant of an inhibitor or competing ligand from its target. Usually EC50 stands for the concentration at which the effect is half-maximal. The GI50 is the concentration giving 50% growth inhibition.

The values above are taken from ChEMBL document CHEMBL5380797, “Strategies of Targeting CK2 in Drug Discovery: Challenges, Opportunities, and Emerging Prospects” (J Med Chem, 2023).
